Measured values reported in patent US9676782B2, “Substituted pyrazolo[1,5-a]pyrazines as negative allosteric modulators of metabotropic glutamate receptor 3” (Vanderbilt University, priority 2014, dated 2017).
Like-named read-outs stand apart in the source and are kept apart here.

How the values were obtained:
[1] = target: rat mGlu3 (Rattus norvegicus (Rat), UniProt P31422); test: mGlu3 Ca2+ flux assay; assay type: cell-based; details: for remaining activity at 30 µM: amplitude of response at 30 μM test compound as % of maximal response to glutamate, read-out: rat mGlu3 Glu max (%); for IC50: read-out: rat mGlu3 IC50
How it was run: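 This calcium mobilization assay used rat mGlu3 cells cultured overnight (37° C., 5% CO2) and read on the FDSS7000 after a 10 minute room-temperature incubation in 20 μL assay buffer. Each of 360 readings per well was divided by its initial value (F/F0). Potency came from fitting normalized responses against log concentration with an unconstrained 4 parameter logistic equation, weighting triplicate points equally.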

[2] = target: rat mGlu5 (Rattus norvegicus (Rat), UniProt P31424); test: mGlu5 Ca2+ flux assay; assay type: cell-based; details: for Emax at 30 µM: PAM, amplitude of response at 30 μM test compound as % of maximal response to glutamate, read-out: rat mGlu5 Glu max (%); for Fold selectivity (mGlu3 vs. mGlu5): ratio of rat mGlu5 EC50 or IC50 to rat mGlu3 IC50; for EC50: read-out: rat mGlu5 EC50 or IC50
How it was run: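 Ca2+ flux read kinetically (FDSS7000) after overnight culture at 37° C/5% CO2 and a 5 min room-temperature buffer step following dye removal. Signals expressed per well as F/F0 and normalized to peak glutamate response; EC50 fitted by free 4-parameter logistic, three replicates per concentration equally weighted.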

[3] = NAM potency, decrease of glutamate EC80 response, >30,000 = no measurable activity, >10,000 = no plateau

Chain of rat mGlu3 (P31422 23-879): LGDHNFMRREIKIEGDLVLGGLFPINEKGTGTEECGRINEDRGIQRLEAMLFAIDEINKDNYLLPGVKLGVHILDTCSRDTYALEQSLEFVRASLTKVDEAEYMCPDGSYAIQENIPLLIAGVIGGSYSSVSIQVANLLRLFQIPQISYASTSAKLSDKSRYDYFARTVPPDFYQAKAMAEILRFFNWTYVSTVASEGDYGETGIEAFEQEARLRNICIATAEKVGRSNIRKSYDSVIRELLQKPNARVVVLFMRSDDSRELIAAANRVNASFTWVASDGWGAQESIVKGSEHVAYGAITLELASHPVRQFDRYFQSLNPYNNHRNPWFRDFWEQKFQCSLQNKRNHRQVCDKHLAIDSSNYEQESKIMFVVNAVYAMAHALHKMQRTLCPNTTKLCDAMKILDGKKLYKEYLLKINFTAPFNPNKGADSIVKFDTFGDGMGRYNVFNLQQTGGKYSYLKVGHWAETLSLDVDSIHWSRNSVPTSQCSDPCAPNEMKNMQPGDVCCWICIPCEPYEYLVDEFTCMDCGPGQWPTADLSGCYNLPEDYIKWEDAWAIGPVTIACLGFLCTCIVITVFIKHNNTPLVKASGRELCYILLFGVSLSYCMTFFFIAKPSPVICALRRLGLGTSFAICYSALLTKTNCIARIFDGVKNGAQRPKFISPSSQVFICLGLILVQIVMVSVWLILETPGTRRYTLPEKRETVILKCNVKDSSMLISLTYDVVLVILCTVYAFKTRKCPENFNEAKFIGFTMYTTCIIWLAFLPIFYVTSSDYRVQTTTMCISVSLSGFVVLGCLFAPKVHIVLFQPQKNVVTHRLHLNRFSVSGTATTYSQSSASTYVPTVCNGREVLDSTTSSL
Chain of rat mGlu5 (P31424 21-1203): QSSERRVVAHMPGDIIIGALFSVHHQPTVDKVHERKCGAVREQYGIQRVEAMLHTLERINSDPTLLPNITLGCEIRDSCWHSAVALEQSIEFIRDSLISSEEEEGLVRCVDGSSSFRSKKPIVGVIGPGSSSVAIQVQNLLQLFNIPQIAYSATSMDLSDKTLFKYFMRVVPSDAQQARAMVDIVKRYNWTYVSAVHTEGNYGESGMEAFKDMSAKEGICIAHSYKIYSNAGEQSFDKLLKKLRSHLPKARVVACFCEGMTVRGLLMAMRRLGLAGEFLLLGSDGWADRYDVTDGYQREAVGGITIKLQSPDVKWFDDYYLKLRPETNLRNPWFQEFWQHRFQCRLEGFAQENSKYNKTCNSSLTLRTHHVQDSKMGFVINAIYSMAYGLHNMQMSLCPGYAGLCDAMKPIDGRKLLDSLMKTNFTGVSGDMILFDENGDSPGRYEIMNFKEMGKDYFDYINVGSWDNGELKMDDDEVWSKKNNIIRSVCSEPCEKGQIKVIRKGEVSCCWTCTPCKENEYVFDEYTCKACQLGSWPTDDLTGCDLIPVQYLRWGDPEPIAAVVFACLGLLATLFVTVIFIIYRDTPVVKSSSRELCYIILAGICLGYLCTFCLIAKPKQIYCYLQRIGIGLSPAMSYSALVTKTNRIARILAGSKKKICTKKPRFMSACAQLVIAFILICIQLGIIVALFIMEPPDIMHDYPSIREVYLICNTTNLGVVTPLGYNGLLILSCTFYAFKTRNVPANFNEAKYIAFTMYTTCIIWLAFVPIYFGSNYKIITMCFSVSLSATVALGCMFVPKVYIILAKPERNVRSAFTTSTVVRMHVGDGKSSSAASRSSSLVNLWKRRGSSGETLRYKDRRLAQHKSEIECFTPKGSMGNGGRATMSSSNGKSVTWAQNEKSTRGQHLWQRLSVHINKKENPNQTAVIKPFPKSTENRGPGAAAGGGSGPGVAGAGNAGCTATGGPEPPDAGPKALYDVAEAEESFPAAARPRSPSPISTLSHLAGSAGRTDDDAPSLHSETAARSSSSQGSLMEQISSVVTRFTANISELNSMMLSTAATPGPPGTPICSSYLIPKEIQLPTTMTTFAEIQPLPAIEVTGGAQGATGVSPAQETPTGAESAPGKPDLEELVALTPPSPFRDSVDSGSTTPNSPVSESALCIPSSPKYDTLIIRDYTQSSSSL

| IC50 [1] [nM] | SMILES | remaining activity at 30 µM [1] [%] | Emax at 30 µM [2] [%] | Fold selectivity (mGlu3 vs. mGlu5) [2] | EC50 [2] [µM] | IC50 [1, 3] [nM] |
| --- | --- | --- | --- | --- | --- | --- |
| 1210 | C[C@@H]1CN(c2ccc(F)cc2)C(=O)c2cc(CNc3cccc(F)c3)nn21 [Compound 46, (R)-5-(4-fluorophenyl)-2-(((3-fluorophenyl)amino)methyl)-7-methyl-6,7-dihydropyrazolo[1,5-a]pyrazin-4(5H)-one] | 0.58 | 24.6 | >8.2 | > 10 |  |
|  | COc1ccc(N(C)Cc2cc3n(n2)CCN(c2ccc(F)cc2C)C3=O)cc1 [Compound 109, 5-(4-fluoro-2-methylphenyl)-2-(((4-methoxyphenyl)(methyl)amino)methyl)-6,7-dihydropyrazolo[1,5-a]pyrazin-4(5H)-one] | 2.13 |  | >22 | > 30 | 1320 |
|  | COc1ccc(N(C)Cc2cc3n(n2)CCN(c2cccc(OC)c2)C3=O)cc1 [Compound 113, 5-(3-methoxyphenyl)-2-(((4-methoxyphenyl)(methyl)amino)methyl)-6,7-dihydropyrazolo[1,5-a]pyrazin-4(5H)-one] | 0.7 |  | >26 | > 30 | 1120 |
|  | C[C@H]1CN(c2ccc(F)cc2)C(=O)c2cc(CNc3cc(F)cc(F)c3)nn21 [Compound 74, (S)-2-(((3,5-difluorophenyl)amino)methyl)-5-(4-fluorophenyl)-7-methyl-6,7-dihydropyrazolo[1,5-a]pyrazin-4(5H)-one] | -2.19 | 59.3 | >4.2 | > 10 | 2350 |
|  | COc1ccc(N(C)Cc2cc3n(n2)CCN(c2ccc(F)c(F)c2)C3=O)cc1 [Compound 97, 5-(3,4-difluorophenyl)-2-(((4-methoxyphenyl)(methyl)amino)methyl)-6,7-dihydropyrazolo[1,5-a]pyrazin-4(5H)-one] | 1.74 ± 0.56 |  | >27 | > 30 | 1080 ± 240 |
|  | C[C@@H]1CN(c2ccc(F)cc2)C(=O)c2cc(CNc3cc(F)ccc3F)nn21 [Compound 70, (R)-2-(((2,5-difluorophenyl)amino)methyl)-5-(4-fluorophenyl)-7-methyl-6,7-dihydropyrazolo[1,5-a]pyrazin-4(5H)-one] | 2.67 | 57.5 | >8.7 | > 10 | 1140 |
|  | Cc1ccc(NCc2cc3n(n2)[C@H](C)CN(c2ccc(F)cc2)C3=O)cc1 [Compound 58, (R)-5-(4-fluorophenyl)-7-methyl-2-((p-tolylamino)methyl)-6,7-dihydropyrazolo[1,5-a]pyrazin-4(5H)-one] | 1.27 |  | >16 | > 30 | 1830 |
|  | Cc1ccc(NCc2cc3n(n2)CCN(c2ccc(F)cc2)C3=O)cc1 [Compound 14, 5-(4-fluorophenyl)-2-((p-tolylamino)methyl)-6,7-dihydropyrazolo[1,5-a]pyrazin-4(5H)-one] | -11.8 |  | >19 | > 30 | 1540 |
|  | O=C1c2cc(CNc3ccc(Cl)cc3F)nn2CCN1c1ccc(F)cc1 [Compound 34, 2-(((4-chloro-2-fluorophenyl)amino)methyl)-5-(4-fluorophenyl)-6,7-dihydropyrazolo[1,5-a]pyrazin-4(5H)-one] | 3.18 |  | >35 | > 30 | 856 |
|  | Cc1cc(NCc2cc3n(n2)CCN(c2ccc(F)cc2)C3=O)ccc1F [Compound 36, 2-(((4-fluoro-3-methylphenyl)amino)methyl)-5-(4-fluorophenyl)-6,7-dihydropyrazolo[1,5-a]pyrazin-4(5H)-one] | 1.91 |  | >17 | > 30 | 1670 |
|  | CN(Cc1cc2n(n1)CCN(c1ccc(F)cc1)C2=O)c1ccccc1F [Compound 83, 5-(4-fluorophenyl)-2-(((2-fluorophenyl)(methyl)amino)methyl)-6,7-dihydropyrazolo[1,5-a]pyrazin-4(5H)-one] | -0.98 |  | >34 | > 30 | 876 |
|  | COc1ccc(N(C)Cc2cc3n(n2)CCN(c2cccc(Cl)c2)C3=O)cc1 [Compound 98, 5-(3-chlorophenyl)-2-(((4-methoxyphenyl)(methyl)amino)methyl)-6,7-dihydropyrazolo[1,5-a]pyrazin-4(5H)-one] | 1.53 |  | >44 | > 30 | 668 |
|  | C[C@H]1CN(c2ccc(F)cc2)C(=O)c2cc(CNc3ccccc3)nn21 [Compound 41, (S)-5-(4-fluorophenyl)-7-methyl-2-((phenylamino)methyl)-6,7-dihydropyrazolo[1,5-a]pyrazin-4(5H)-one] | -2.27 | 81.7 | 0.17 | 1.36 | 8110 |
|  | COc1ccc(NCc2cc3n(n2)[C@H](C)CN(c2ccc(F)cc2)C3=O)cc1 [Compound 62, (R)-5-(4-fluorophenyl)-2-(((4-methoxyphenyl)amino)methyl)-7-methyl-6,7-dihydropyrazolo[1,5-a]pyrazin-4(5H)-one] | 0.79 |  | >10 | > 30 | 2990 |
|  | Cc1cccc(NCc2cc3n(n2)CCN(c2ccc(F)cc2)C3=O)n1 [Compound 157, 5-(4-fluorophenyl)-2-(((6-methylpyridin-2-yl)amino)methyl)-6,7-dihydropyrazolo[1,5-a]pyrazin-4(5H)-one] | -0.19 |  | >9.3 | > 30 | 3210 |
|  | CN(Cc1cc2n(n1)CCN(c1ccc(F)cc1)C2=O)c1ccccc1 [Compound 82, 5-(4-fluorophenyl)-2-((methyl(phenyl)amino)methyl)-6,7-dihydropyrazolo[1,5-a]pyrazin-4(5H)-one] | 1.01 |  | >24 | > 30 | 1220 |
|  | COc1ccc(N(C)Cc2cc3n(n2)CCN(c2ccc(F)cn2)C3=O)cc1 [Compound 122, 5-(5-fluoropyridin-2-yl)-2-(((4-methoxyphenyl)(methyl)amino)methyl)-6,7-dihydropyrazolo[1,5-a]pyrazin-4(5H)-one] | 1.4 |  | >26 | > 30 | 1140 |
|  | O=C1c2cc(CNc3ccc(OC(F)F)cc3F)nn2CCN1c1ncccc1F [Compound 143, 2-(((4-(difluoromethoxy)-2-fluorophenyl)amino)methyl)-5-(3-fluoropyridin-2-yl)-6,7-dihydropyrazolo[1,5-a]pyrazin-4(5H)-one] | 1.31 |  | >31 | > 30 | 950 |
|  | COc1ccc(N(C)Cc2cc3n(n2)CCN(c2cccc(C#N)c2)C3=O)cc1 [Compound 116, 3-(2-(((4-methoxyphenyl)(methyl)amino)methyl)-4-oxo-6,7-dihydropyrazolo[1,5-a]pyrazin-5(4H)-yl)benzonitrile] | 1.55 |  | >13 | > 30 | 2210 |
|  | O=C1c2cc(CNc3ccc(OC(F)F)cc3F)nn2CCN1c1ccc(F)cn1 [Compound 146, 2-(((4-(difluoromethoxy)-2-fluorophenyl)amino)methyl)-5-(5-fluoropyridin-2-yl)-6,7-dihydropyrazolo[1,5-a]pyrazin-4(5H)-one] | 2.03 |  | >51 | > 30 | 578 |
|  | COc1cccc(NCc2cc3n(n2)CCN(c2ccc(F)cc2)C3=O)c1 [Compound 10, 5-(4-fluorophenyl)-2-(((3-methoxyphenyl)amino)methyl)-6,7-dihydropyrazolo[1,5-a]pyrazin-4(5H)-one] | 2.01 |  | >16 | > 30 | 1780 |
|  | O=C1c2cc(CNc3ccc(OC(F)F)cc3F)nn2CCN1c1cc(F)cc(F)c1 [Compound 152, 2-(((4-(difluoromethoxy)-2-fluorophenyl)amino)methyl)-5-(3,5-difluorophenyl)-6,7-dihydropyrazolo[1,5-a]pyrazin-4(5H)-one] | 2.23 |  | >28 | > 30 | 1070 |
|  | O=C1c2cc(CNc3cccc(F)c3F)nn2CCN1c1ccc(F)cc1 [Compound 27, 2-(((2,3-difluorophenyl)amino)methyl)-5-(4-fluorophenyl)-6,7-dihydropyrazolo[1,5-a]pyrazin-4(5H)-one] | 2.82 | 90.8 | 4.06 | 2.38 | 586 |
|  | COc1ccc(N(C)Cc2cc3n(n2)CCN(c2ccc(F)c(Cl)c2)C3=O)cc1 [Compound 133, 5-(3-chloro-4-fluorophenyl)-2-(((4-methoxyphenyl)(methyl)amino)methyl)-6,7-dihydropyrazolo[1,5-a]pyrazin-4(5H)-one] | 2.13 |  | >24 | > 30 | 1210 |
